Reference: patent publication US7582627B2, “3-aminoquinazolin-2,4-dione antibacterial agents” (Warner-Lambert Company, priority 2000, dated 2009)
pIC50: −log10 of the molar value. Values after ≈ are worked out from the molar mass of the structure shown. Counter-ions that a name gives are not always drawn. Like-named read-outs stand apart in the source and are kept apart here.

Assays:
E. coli gyrase = target: T1, E. coli gyrase (Escherichia coli, UniProt P0AES4+P0AES6); test: DNA gyrase supercoiling inhibition assay; assay type: biochemical; details: supercoiling of relaxed pBR322, 30 minutes at 37° C.; read-out: E. coli gyrase IC50
T1 construct: purchased Lucent, Ltd., Leicester, UK
Description: The effects of invention compounds on the activity of DNA gyrase is determined in the supercoiling inhibition assay, following reaction conditions recommended by the enzyme supplier (Lucent, Ltd., Leicester, UK). Reactions are performed in buffer G (35 mM Tris-HCl (pH 7.5), 24 mM KCl, 4 mM MgCl2, 2 mM DTT, 1.8 mM spermidine, 1 mM ATP, 0.1 mg/mL bovine serum albumin). Relaxed plasmid pBR322 (0.25 μg, Lucent, Ltd., Leicester, UK) is reacted with 1 U E. coli gyrase (Lucent, Ltd., Leicester, UK), in the absence or presence of test compounds, for 30 minutes at 37° C. Reactions are stopped by the addition of SDS and proteinase K to respective final concentrations of 1% and 0.5 mg/mL. After an additional 30 minutes at 37° C., one-tenth volume of 10× loading buffer (0.3% bromophenol blue, 16% Ficoll, 10 mM Na2HPO4) is added, and reactions are loaded onto agarose gels and electrophoresed. The concentration of representative invention compounds of Formula I inhibiting 50% of the supercoiling activity of DNA gyrase is given as an IC50 and recorded in Table 2.

E. coli MC4100 = test: Antibacterial assay, microtitration MIC; assay type: cell-based; details: for MIC: Escherichia coli
Description: (§1) The compounds of the present invention are tested against an assortment of Gram negative and Gram positive organisms using standard microtitration techniques (Cohen et al., Antimicrob. Agents Chemother., 1985; 28:766; Heifetz et al., Antimicrob. Agents Chemother., 1974; 6:124). The results of the evaluation of representative 3-aminoquinazolin-2,4-diones of Formula I are shown in Table 2 and compared to two 3-hydroxyquinazolin-2,4-diones.

S. pyogenes C203 = test: Antibacterial assay, microtitration MIC; assay type: cell-based; details: for MIC: Streptococcus pyogenes
Description: as §1

E. coli B90 = test: Antibacterial assay, microtitration MIC; assay type: cell-based; details: for MIC: Escherichia coli
Description: as §1

S. aureus 29213 = test: Antibacterial assay, microtitration MIC; assay type: cell-based
Description: as §1

E. coli Tol C = test: Antibacterial assay, microtitration MIC; assay type: cell-based; details: for MIC: Escherichia coli, read-out: Minimum Inhibitory Concentrations E. coli Tol C
Description: as §1

E. faecalis RB1 = test: Antibacterial assay, microtitration MIC; assay type: cell-based; details: for MIC: Enterococcus faecalis
Description: as §1

[1] = MC4100, Gram negative, read-out: Minimum Inhibitory Concentrations E. coli MC4100
[2] = C203, Gram positive, read-out: Minimum Inhibitory Concentrations S. pyogenes C203
[3] = B90, Gram negative, read-out: Minimum Inhibitory Concentrations E. coli B90
[4] = Staphylococcus aureus, 29213, Gram positive, read-out: Minimum Inhibitory Concentrations S. aureus 29213
[5] = RB1, Gram positive, read-out: Minimum Inhibitory Concentrations E. faecalis RB1

SMILES	melting point	further results
O=c1c2cc(F)c(N3C[C@@H]4CCCN[C@@H]4C3)cc2n(C2CC2)c(=O)n1O [reference compound]	–	pIC50 (E. coli gyrase): 5.30; MIC (E. coli MC4100; [1]): 8 µg/mL (≈ 22.2 µM); MIC (S. pyogenes C203; [2]): 32 µg/mL (≈ 88.8 µM); MIC (E. coli B90; [3]): 2 µg/mL (≈ 5.55 µM); MIC (S. aureus 29213; [4]): 32 µg/mL (≈ 88.8 µM); MIC (E. coli Tol C): 1 µg/mL (≈ 2.77 µM); MIC (E. faecalis RB1; [5]): 64 µg/mL (≈ 178 µM)
Cl.N[C@H]1CCN(c2c(F)cc3c(=O)n(N)c(=O)n(NC4CC4)c3c2F)C1 [Compound 7, 3-Amino-7-[(S)-3-aminopyrrolidin-1-yl]-1-cyclopropylamino-6,8-difluoro-1H-quinazoline-2,4-dione hydrochloride]	–	pIC50 (E. coli gyrase): 5.89; Minimum Inhibitory Concentrations E. coli MC4100 (E. coli MC4100; Gram negative): 2.0 µg/mL; Minimum Inhibitory Concentrations S. pyogenes C203 (S. pyogenes C203; Gram positive): 4.0 µg/mL; Minimum Inhibitory Concentrations E. coli B90 (E. coli B90; Gram negative): 0.5 µg/mL; Minimum Inhibitory Concentrations S. aureus 29213 (S. aureus 29213; Gram positive): 8.0 µg/mL; Minimum Inhibitory Concentrations E. coli Tol C (E. coli Tol C; Gram negative): 0.25 µg/mL; Minimum Inhibitory Concentrations E. faecalis RB1 (E. faecalis RB1; Gram positive): 8.0 µg/mL
N[C@H]1CCN(c2c(F)c(F)c3c(=O)n(N)c(=O)n(C4CC4)c3c2F)C1 [Compound 9, 3-Amino-7-((S)-3-aminopyrrolidin-1-yl)-1-cyclopropyl-5,6,8-trifluoro-1H-quinazoline-2,4-dione hydrochloride]	–	pIC50 (E. coli gyrase): 5.52; MIC (E. coli MC4100; MC4100, read-out: Minimum Inhibitory Concentrations E. coli MC4100): 2 µg/mL; MIC (S. pyogenes C203; C203, read-out: Minimum Inhibitory Concentrations S. pyogenes C203): 16 µg/mL; MIC (E. coli B90; B90, read-out: Minimum Inhibitory Concentrations E. coli B90): 1 µg/mL; MIC (S. aureus 29213; Staphylococcus aureus, 29213, read-out: Minimum Inhibitory Concentrations S. aureus 29213): 16 µg/mL; MIC (E. coli Tol C): 0.5 µg/mL; MIC (E. faecalis RB1; RB1, read-out: Minimum Inhibitory Concentrations E. faecalis RB1): 32 µg/mL
CC(C)(N)[C@@H]1CCN(c2nc3c(cc2F)c(=O)n(N)c(=O)n3C2CC2)C1.Cl	> 260 °C	–
COc1c(N2CC(N)C(F)C2)c(F)cc2c(=O)n(N)c(=O)n(C3CC3)c12.Cl (stereo not drawn)	> 250 °C	–
COc1c(N2CC3CCCCC3(CN)C2)c(F)cc2c(=O)n(N)c(=O)n(C3CC3)c12.Cl (stereo not drawn)	> 250 °C	–
Cc1c(N2CC3CCCNC3C2)c(F)cc2c(=O)n(N)c(=O)n(C3CC3)c12.Cl (stereo not drawn)	220 °C	–
N[C@H]1CCN(c2c(F)c(F)c3c(=O)n(N)c(=O)n(C4CC4)c3c2F)C1 (as salt: hydrochloride) [Compound 9, 3-Amino-7-((S)-3-aminopyrrolidin-1-yl)-1-cyclopropyl-5,6,8-trifluoro-1H-quinazoline-2,4-dione hydrochloride]	271 °C (dec.)	–
N[C@@H]1[C@H]2CN(c3cc4c(cc3F)c(=O)n(O)c(=O)n4C3CC3)C[C@@H]12 [drawing 284, reference compound]	–	pIC50 (E. coli gyrase): 6.05; MIC (E. coli MC4100; [1]): 1 µg/mL (≈ 3.01 µM); MIC (S. pyogenes C203; [2]): 2 µg/mL (≈ 6.02 µM); MIC (E. coli B90; [3]): 0.25 µg/mL (≈ 0.752 µM); MIC (S. aureus 29213; [4]): 4 µg/mL (≈ 12 µM); MIC (E. coli Tol C): 0.25 µg/mL (≈ 0.752 µM); MIC (E. faecalis RB1; [5]): 4 µg/mL (≈ 12 µM)
COc1c(N2C[C@@H](CN)[C@H](F)C2)c(F)cc2c(=O)n(N)c(=O)n(C3CC3)c12.Cl (relative stereo)	144 to 147 °C	–
COc1c(N2CC(C)C(C(C)N)C2)c(F)cc2c(=O)n(N)c(=O)n(C3CC3)c12.Cl (stereo not drawn)	204.5 °C	–
CC1COc2c(N3CC[C@H](N)C3)c(F)cc3c(=O)n(N)c(=O)n1c23.Cl (stereo partly drawn)	202 to 204 °C	–
CN[C@H]1CCN(c2c(F)cc3c(=O)n(N)c(=O)n(C4CC4)c3c2Cl)C1 (as salt: hydrochloride) [Compound 5, 3-Amino-7-((S)-3-N-methylaminopyrrolidin-1-yl)-8-chloro-1-cyclopropyl-6-fluoro-1H-quinazoline-2,4-dione hydrochloride]	118 to 120 °C	–
COc1c(N2CC[C@H]([C@@H](C)N)C2)c(F)cc2c(=O)n(N)c(=O)n(C3CC3)c12.Cl [Compound 133]	228 to 230 °C	–
CN[C@H](C)[C@@H]1CCN(c2nc3c(cc2F)c(=O)n(N)c(=O)n3C2CC2)C1.Cl	137 to 139 °C	–
Cc1c(F)c(N2CCC(N)C2)cc2c1c(=O)n(N)c(=O)n2C1CC1.Cl (stereo not drawn)	238 to 240 °C	–
Cc1c(N2CC(C(C)N)C3(CC3)C2)c(F)cc2c(=O)n(N)c(=O)n(C3CC3)c12.Cl (stereo not drawn)	178 to 180 °C	–
COc1c(N2CC(CN)C3(CC3)C2)c(F)cc2c(=O)n(N)c(=O)n(C3CC3)c12.Cl (stereo not drawn)	178 °C	–
CC(C)n1c(=O)n(N)c(=O)c2cc(F)c(N3CCC(N)C3)c(Cl)c21 (stereo not drawn) (as salt: trifluoroacetate)	151 °C	–
Cl.N[C@@H]1CN(c2c(F)cc3c(=O)n(N)c(=O)n(C4CC4)c3c2Cl)C[C@H]1c1ccc(O)cc1 (relative stereo)	> 200 °C	–
Cc1c(N2CC(CN)C3(CC3)C2)c(F)cc2c(=O)n(N)c(=O)n(C3CC3)c12.Cl (stereo not drawn)	167 °C	–
Cc1c(N2CCC(N)(c3ccccc3)C2)c(F)cc2c(=O)n(N)c(=O)n(C3CC3)c12.Cl (stereo not drawn)	236 °C	–

More lines, main results first:

melting point	SMILES	further results
198 °C	COc1c(N2CCCC(C(C)N)C2)c(F)cc2c(=O)n(N)c(=O)n(C3CC3)c12.Cl (stereo not drawn)	–
> 250 °C	COc1c(N2CCC3(CC3N)C2)c(F)cc2c(=O)n(N)c(=O)n(C3CC3)c12.Cl (stereo not drawn)	–
227 to 231 °C	Cc1c(N2CCC(CN)(c3ccccc3)C2)c(F)cc2c(=O)n(N)c(=O)n(C3CC3)c12.Cl (stereo not drawn)	–
111 to 114 °C	NC1C2CN(c3c(F)cc4c(=O)n(N)c(=O)n(C5CC5)c4c3Cl)CC12 (stereo not drawn) (as salt: hydrochloride)	–
201 °C	COc1c(N2CCC(CN)CC2)c(F)cc2c(=O)n(N)c(=O)n(C3CC3)c12.Cl	–
147 to 149 °C	Cl.NCC1CCN(c2c(Cl)cc3c(=O)n(N)c(=O)n(C4CC4)c3c2Cl)C1 (stereo not drawn)	–
147 to 149 °C	Nn1c(=O)c2cc(F)c(N3CCC4(CCNC4)C3)c(Cl)c2n(C2CC2)c1=O (stereo not drawn) [Compound 62, 3-Amino-8-chloro-1-cyclopropyl-7-(2,7-diazaspiro[4.4]non-2-yl)-6-fluoro-1H-quinazoline-2,4-dione]	–
210 °C	Cc1c(N2CCC(C)(CN)C2)c(F)cc2c(=O)n(N)c(=O)n(C3CC3)c12.Cl (stereo not drawn)	–
240 °C	Cc1c(N2CC(C)C(C(C)N)C2)c(F)cc2c(=O)n(N)c(=O)n(C3CC3)c12.Cl (stereo not drawn)	–
183 to 185 °C	COc1c(N2CC3CC3(CN)C2)c(F)cc2c(=O)n(N)c(=O)n(C3CC3)c12.Cl (stereo not drawn)	–
> 250 °C	Cl.N[C@H]1CCN(c2cc3c(cc2F)c(=O)n(N)c(=O)n3C2CC2)C1	–
158 to 160 °C	Cl.NCCC1CCN(c2c(F)cc3c(=O)n(N)c(=O)n(C4CC4)c3c2Cl)C1 (stereo not drawn)	–
92 to 94 °C	COc1c(N2CCCC2)c(F)cc2c(=O)n(N)c(=O)n(C3CC3)c12.Cl	–
252 °C (dec.)	COc1c(N2CCC(C(=O)O)C2)c(F)cc2c(=O)n(N)c(=O)n(C3CC3)c12.O=C(O)C(F)(F)F (stereo not drawn)	–
192 to 194 °C	CC1COc2c(N3CC[C@@H]([C@H](C)N)C3)c(F)cc3c(=O)n(N)c(=O)n1c23.Cl (stereo partly drawn)	–
134 °C (dec.)	COc1c(N2CCC(C(C)(C)O)C2)c(F)cc2c(=O)n(N)c(=O)n(C3CC3)c12.Cl (stereo not drawn)	–
221 to 223 °C	COc1c(N2CC[C@H]([C@H](C)N)C2)c(F)cc2c(=O)n(N)c(=O)n(C3CC3)c12.Cl	–
209 °C	COc1c(N2C[C@@H](C)[C@H](N)C2)c(F)cc2c(=O)n(N)c(=O)n(C3CC3)c12.Cl (relative stereo)	–
> 190 °C	COc1c(N2CC3C(N)CC3(C)C2)c(F)cc2c(=O)n(N)c(=O)n(C3CC3)c12.Cl (stereo not drawn)	–
201 °C	COc1c(N2CCCC(CN)C2)c(F)cc2c(=O)n(N)c(=O)n(C3CC3)c12.Cl (stereo not drawn)	–
